From ChEMBL document CHEMBL4507256 (2021)

Experiments:
[1] = tested on: Tyrosine-protein kinase ABL1 (Homo sapiens), P00519 [F317I]; settings: Compound concentration 1000.0 nM
[2] = target: Atypical kinase COQ8A, mitochondrial (Homo sapiens) (UniProt Q8NI60); settings: Compound concentration 1000.0 nM
[3] = target: RAC-gamma serine/threonine-protein kinase (Homo sapiens) (UniProt Q9Y243); settings: Compound concentration 1000.0 nM
[4] = target: 5'-AMP-activated protein kinase catalytic subunit alpha-2 (Homo sapiens) (UniProt P54646); settings: Compound concentration 1000.0 nM
[5] = target: NUAK family SNF1-like kinase 1 (Homo sapiens) (UniProt O60285); settings: Compound concentration 1000.0 nM
[6] = target: Aurora kinase A (Homo sapiens) (UniProt O14965); settings: Compound concentration 1000.0 nM
[7] = target: Calcium/calmodulin-dependent protein kinase type IV (Homo sapiens) (UniProt Q16566); settings: Compound concentration 1000.0 nM
[8] = target: Peripheral plasma membrane protein CASK (Homo sapiens) (UniProt O14936); settings: Compound concentration 1000.0 nM
[9] = target: Cyclin-dependent kinase 4 (Homo sapiens) (UniProt P11802); settings: Compound concentration 1000.0 nM
[10] = target: Cyclin-dependent kinase-like 2 (Homo sapiens) (UniProt Q92772); settings: Compound concentration 1000.0 nM
[11] = target: Serine/threonine-protein kinase Chk1 (Homo sapiens) (UniProt O14757); settings: Compound concentration 1000.0 nM
[12] = target: Macrophage colony-stimulating factor 1 receptor (Homo sapiens) (UniProt P07333); settings: Compound concentration 1000.0 nM
[13] = target: Ephrin type-A receptor 1 (Homo sapiens) (UniProt P21709); settings: Compound concentration 1000.0 nM
[14] = tested on: Fibroblast growth factor receptor 3 (Homo sapiens), P22607 [G697C]; settings: Compound concentration 1000.0 nM
Chain of Fibroblast growth factor receptor 3 (Homo sapiens), P22607 [G697C] (P22607 whole entry G697C): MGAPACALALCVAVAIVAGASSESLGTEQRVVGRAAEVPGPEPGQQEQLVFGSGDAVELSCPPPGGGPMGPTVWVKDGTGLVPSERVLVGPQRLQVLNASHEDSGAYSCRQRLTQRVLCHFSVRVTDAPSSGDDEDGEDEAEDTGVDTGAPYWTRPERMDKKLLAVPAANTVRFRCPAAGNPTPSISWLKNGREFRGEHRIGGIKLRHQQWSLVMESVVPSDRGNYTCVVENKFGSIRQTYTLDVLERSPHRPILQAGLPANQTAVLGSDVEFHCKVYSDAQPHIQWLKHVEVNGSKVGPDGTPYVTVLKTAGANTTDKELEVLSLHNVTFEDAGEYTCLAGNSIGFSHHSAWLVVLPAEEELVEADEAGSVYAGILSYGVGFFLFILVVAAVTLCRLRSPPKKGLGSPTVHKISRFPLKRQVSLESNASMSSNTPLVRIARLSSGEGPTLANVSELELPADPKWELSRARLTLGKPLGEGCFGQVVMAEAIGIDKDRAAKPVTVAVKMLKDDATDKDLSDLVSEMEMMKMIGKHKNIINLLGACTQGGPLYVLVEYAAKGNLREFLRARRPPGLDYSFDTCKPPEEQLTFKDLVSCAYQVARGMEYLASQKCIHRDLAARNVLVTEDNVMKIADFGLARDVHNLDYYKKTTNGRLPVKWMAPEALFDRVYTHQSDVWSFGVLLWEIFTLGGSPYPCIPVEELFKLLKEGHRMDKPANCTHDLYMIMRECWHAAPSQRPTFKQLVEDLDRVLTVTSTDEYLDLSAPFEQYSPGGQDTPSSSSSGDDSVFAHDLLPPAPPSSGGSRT

[15] = tested on: eIF-2-alpha kinase GCN2 (Homo sapiens), Q9P2K8 [S808G]; settings: Compound concentration 1000.0 nM
Chain of eIF-2-alpha kinase GCN2 (Homo sapiens), Q9P2K8 [S808G] (Q9P2K8 whole entry S808G): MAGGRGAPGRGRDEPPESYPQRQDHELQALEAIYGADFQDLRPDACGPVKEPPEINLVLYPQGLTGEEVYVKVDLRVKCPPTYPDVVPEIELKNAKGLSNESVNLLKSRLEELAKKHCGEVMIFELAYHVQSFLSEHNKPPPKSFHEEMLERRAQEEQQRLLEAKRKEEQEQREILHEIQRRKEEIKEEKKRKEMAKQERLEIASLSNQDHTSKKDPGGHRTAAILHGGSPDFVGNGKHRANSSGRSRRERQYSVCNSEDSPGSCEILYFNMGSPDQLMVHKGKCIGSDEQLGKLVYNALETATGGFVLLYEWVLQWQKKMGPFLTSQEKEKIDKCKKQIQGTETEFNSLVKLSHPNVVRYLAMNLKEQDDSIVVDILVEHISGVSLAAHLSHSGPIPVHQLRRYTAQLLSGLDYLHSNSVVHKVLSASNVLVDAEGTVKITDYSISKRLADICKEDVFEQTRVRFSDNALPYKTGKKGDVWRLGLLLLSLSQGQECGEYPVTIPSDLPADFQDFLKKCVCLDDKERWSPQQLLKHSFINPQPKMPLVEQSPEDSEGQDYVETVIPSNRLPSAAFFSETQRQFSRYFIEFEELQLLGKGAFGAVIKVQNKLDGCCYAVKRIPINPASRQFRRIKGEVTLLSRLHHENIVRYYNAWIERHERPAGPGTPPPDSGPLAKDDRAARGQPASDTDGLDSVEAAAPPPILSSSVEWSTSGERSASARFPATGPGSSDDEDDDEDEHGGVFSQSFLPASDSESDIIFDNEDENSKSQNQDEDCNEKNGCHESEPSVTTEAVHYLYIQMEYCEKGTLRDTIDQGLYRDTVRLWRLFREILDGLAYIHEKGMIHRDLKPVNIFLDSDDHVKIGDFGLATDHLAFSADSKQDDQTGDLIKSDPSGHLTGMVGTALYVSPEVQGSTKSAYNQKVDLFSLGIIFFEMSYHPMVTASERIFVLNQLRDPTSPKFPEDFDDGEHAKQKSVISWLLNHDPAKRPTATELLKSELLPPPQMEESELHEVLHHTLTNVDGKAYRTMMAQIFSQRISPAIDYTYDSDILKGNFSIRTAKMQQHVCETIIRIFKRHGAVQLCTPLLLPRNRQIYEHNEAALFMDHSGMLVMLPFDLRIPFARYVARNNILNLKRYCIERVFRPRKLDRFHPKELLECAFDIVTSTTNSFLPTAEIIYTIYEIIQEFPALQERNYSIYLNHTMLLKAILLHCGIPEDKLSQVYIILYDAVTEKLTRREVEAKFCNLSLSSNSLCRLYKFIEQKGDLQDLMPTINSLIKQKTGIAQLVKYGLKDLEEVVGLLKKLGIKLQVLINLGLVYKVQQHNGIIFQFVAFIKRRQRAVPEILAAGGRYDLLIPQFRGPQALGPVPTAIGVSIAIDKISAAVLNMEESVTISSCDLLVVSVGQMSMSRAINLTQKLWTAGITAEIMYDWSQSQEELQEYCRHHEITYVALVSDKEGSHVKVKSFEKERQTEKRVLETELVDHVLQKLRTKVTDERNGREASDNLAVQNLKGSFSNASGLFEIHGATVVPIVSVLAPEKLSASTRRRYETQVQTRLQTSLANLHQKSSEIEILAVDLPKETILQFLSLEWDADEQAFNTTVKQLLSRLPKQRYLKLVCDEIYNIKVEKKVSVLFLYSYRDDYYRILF

[16] = target: G protein-coupled receptor kinase 4 (Homo sapiens) (UniProt P32298); settings: Compound concentration 1000.0 nM
[17] = target: Interleukin-1 receptor-associated kinase 1 (Homo sapiens) (UniProt P51617); settings: Compound concentration 1000.0 nM
[18] = tested on: Mast/stem cell growth factor receptor Kit (Homo sapiens), P10721 [V559D,V654A]; settings: Compound concentration 1000.0 nM
[19] = target: Tyrosine-protein kinase Lyn (Homo sapiens) (UniProt P07948); settings: Compound concentration 1000.0 nM
[20] = target: Mitogen-activated protein kinase kinase kinase 15 (Homo sapiens) (UniProt Q6ZN16); settings: Compound concentration 1000.0 nM
[21] = target: Serine/threonine-protein kinase PAK 6 (Homo sapiens) (UniProt Q9NQU5); settings: Compound concentration 1000.0 nM
[22] = target: Calcium-dependent protein kinase 1 (Plasmodium falciparum) (UniProt P62344); settings: Compound concentration 1000.0 nM
[23] = target: Cyclin-dependent kinase 14 (Homo sapiens) (UniProt O94921); settings: Compound concentration 1000.0 nM
[24] = target: Phosphatidylinositol 4-phosphate 5-kinase type-1 gamma (Homo sapiens) (UniProt O60331); settings: Compound concentration 1000.0 nM
[25] = target: Protein kinase C theta type (Homo sapiens) (UniProt Q04759); settings: Compound concentration 1000.0 nM
[26] = target: Serine/threonine-protein kinase RIO2 (Homo sapiens) (UniProt Q9BVS4); settings: Compound concentration 1000.0 nM
Chain of Serine/threonine-protein kinase RIO2 (Homo sapiens) (Q9BVS4 whole entry, looked up): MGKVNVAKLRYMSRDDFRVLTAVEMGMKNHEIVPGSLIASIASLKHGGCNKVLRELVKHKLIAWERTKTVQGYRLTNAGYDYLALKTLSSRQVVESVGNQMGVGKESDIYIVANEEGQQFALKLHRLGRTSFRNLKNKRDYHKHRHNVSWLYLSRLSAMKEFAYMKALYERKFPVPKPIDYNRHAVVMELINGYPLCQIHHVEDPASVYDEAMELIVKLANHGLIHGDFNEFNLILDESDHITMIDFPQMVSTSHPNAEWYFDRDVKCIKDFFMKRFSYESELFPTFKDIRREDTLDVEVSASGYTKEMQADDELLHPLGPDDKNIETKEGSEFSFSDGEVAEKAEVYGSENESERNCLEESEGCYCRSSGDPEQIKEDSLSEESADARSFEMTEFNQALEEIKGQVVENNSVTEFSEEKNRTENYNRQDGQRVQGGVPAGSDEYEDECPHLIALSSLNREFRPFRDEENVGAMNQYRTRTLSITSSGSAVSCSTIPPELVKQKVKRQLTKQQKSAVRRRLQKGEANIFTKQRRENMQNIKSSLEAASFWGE

[27] = target: Rho-associated protein kinase 1 (Homo sapiens) (UniProt Q13464); settings: Compound concentration 1000.0 nM
Chain of Rho-associated protein kinase 1 (Homo sapiens) (Q13464 2-1354 limits assumed): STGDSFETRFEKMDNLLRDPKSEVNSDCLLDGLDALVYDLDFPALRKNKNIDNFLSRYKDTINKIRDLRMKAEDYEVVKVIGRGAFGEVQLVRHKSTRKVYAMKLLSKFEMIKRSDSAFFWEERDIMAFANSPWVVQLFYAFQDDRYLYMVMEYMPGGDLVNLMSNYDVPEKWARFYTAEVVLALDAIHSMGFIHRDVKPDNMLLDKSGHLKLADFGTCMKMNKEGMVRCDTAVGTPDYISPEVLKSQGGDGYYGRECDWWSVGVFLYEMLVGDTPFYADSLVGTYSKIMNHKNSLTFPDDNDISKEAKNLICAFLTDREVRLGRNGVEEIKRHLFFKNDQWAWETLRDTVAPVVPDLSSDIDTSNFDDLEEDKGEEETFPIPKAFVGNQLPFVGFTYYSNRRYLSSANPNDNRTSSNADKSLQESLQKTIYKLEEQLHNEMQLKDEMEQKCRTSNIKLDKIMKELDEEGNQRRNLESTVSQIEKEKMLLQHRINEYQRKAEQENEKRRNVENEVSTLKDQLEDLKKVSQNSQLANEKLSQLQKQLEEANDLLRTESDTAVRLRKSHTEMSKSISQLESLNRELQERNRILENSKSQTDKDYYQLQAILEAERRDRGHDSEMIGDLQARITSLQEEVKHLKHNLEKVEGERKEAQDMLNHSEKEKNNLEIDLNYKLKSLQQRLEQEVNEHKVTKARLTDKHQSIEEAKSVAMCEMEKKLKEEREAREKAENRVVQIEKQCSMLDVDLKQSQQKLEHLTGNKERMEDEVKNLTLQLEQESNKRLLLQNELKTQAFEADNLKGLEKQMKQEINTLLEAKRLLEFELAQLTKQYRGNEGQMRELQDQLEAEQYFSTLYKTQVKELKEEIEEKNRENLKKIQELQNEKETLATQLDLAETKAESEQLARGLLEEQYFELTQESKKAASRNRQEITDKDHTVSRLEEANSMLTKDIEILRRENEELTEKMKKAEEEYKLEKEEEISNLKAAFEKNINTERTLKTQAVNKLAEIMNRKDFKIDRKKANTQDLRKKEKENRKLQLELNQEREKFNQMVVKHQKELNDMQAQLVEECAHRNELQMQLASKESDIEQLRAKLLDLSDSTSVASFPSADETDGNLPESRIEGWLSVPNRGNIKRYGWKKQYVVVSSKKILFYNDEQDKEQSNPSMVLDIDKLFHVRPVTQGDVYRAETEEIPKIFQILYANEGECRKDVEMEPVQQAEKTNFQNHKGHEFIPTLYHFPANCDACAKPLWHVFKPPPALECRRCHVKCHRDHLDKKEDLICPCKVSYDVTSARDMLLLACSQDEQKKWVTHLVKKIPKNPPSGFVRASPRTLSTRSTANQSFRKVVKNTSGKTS

[28] = target: Ribosomal protein S6 kinase alpha-2 (Homo sapiens) (UniProt Q15349); settings: Compound concentration 1000.0 nM
[29] = target: SRSF protein kinase 3 (Homo sapiens) (UniProt Q9UPE1); settings: Compound concentration 1000.0 nM
[30] = target: Tyrosine-protein kinase Tec (Homo sapiens) (UniProt P42680); settings: Compound concentration 1000.0 nM
[31] = target: High affinity nerve growth factor receptor (Homo sapiens) (UniProt P04629); settings: Compound concentration 1000.0 nM
Chain of High affinity nerve growth factor receptor (Homo sapiens) (P04629 33-796 limits assumed): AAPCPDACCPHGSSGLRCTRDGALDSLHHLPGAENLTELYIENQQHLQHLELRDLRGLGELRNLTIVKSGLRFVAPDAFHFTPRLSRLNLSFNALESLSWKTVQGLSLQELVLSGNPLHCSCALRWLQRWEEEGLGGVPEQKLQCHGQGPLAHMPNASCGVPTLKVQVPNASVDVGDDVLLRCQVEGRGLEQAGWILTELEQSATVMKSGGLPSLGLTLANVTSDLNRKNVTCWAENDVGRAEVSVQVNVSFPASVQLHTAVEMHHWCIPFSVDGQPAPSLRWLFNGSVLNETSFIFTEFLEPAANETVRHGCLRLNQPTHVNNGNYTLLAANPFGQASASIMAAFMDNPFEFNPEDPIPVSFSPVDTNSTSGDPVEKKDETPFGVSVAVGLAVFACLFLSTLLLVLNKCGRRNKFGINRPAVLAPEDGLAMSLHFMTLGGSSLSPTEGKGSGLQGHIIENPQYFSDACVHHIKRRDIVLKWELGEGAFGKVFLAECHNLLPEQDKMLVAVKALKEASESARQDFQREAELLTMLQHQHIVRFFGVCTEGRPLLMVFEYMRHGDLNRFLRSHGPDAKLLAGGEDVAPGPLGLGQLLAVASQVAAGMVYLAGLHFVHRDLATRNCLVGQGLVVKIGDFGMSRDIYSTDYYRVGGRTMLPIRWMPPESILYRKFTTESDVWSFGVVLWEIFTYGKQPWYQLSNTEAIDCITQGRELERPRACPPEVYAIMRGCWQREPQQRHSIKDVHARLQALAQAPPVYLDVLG

[32] = target: Testis-specific serine/threonine-protein kinase 3 (Homo sapiens) (UniProt Q96PN8); settings: Compound concentration 1000.0 nM
[33] = target: Non-receptor tyrosine-protein kinase TYK2 (Homo sapiens) (UniProt P29597); settings: Compound concentration 1000.0 nM
[34] = target: Serine/threonine-protein kinase WNK2 (Homo sapiens) (UniProt Q9Y3S1); settings: Compound concentration 1000.0 nM
[35] = target: Serine/threonine-protein kinase 32A (Homo sapiens) (UniProt Q8WU08); settings: Compound concentration 1000.0 nM
[36] = target: Tyrosine-protein kinase ZAP-70 (Homo sapiens) (UniProt P43403); settings: Compound concentration 1000.0 nM
[37] = target: Alpha-1A adrenergic receptor (Homo sapiens) (UniProt P35348); settings: Compound concentration 10.0 uM
[38] = target: Alpha-2B adrenergic receptor (Homo sapiens) (UniProt P18089); settings: Compound concentration 10.0 uM
[39] = target: T1, Muscarinic acetylcholine receptor M2 (Homo sapiens) (UniProt P08172); settings: Compound concentration 10.0 uM
T1 sequence (whole entry): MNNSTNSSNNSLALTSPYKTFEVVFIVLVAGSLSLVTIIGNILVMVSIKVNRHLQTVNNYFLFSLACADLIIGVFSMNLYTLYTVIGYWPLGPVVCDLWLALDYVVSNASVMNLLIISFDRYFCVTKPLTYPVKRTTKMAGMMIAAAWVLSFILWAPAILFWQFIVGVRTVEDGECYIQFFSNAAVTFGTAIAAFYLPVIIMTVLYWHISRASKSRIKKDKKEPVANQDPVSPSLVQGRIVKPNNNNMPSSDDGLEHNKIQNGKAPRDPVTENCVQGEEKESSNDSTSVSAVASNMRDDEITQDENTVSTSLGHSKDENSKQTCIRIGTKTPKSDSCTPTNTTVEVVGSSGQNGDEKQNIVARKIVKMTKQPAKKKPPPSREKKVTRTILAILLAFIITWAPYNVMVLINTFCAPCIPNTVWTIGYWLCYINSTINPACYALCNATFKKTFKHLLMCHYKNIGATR

SMILES	residual activity [1] [%]	residual activity [2] [%]	residual activity [3] [%]	residual activity [4] [%]	residual activity [5] [%]	residual activity [6] [%]	residual activity [7] [%]	residual activity [8] [%]	residual activity [9] [%]	residual activity [10] [%]	residual activity [11] [%]	residual activity [12] [%]	residual activity [13] [%]	residual activity [14] [%]	residual activity [15] [%]	residual activity [16] [%]	residual activity [17] [%]	residual activity [18] [%]	residual activity [19] [%]	residual activity [20] [%]	other results
CCC(=N\O)/C(C)=C/c1ccc(F)cc1 [A-079]	100	78	83	88	100	100	69	70	100	92	83	100	82	84	70	100	79	73	87	100	residual activity [21]: 100%; residual activity [22]: 87%; residual activity [23]: 91%; residual activity [24]: 100%; residual activity [25]: 80%; residual activity [26]: 86%; residual activity [27]: 100%; residual activity [28]: 85%; residual activity [29]: 91%; residual activity [30]: 89%; residual activity [31]: 83%; residual activity [32]: 99%; residual activity [33]: 72%; residual activity [34]: 80%; residual activity [35]: 100%; residual activity [36]: 96%; inhibition [37]: -9.69%; inhibition [38]: 15.1%; inhibition [39]: 9.31%
CCC(=N\O)/C(C)=C/c1ccc(F)c(C)c1 [A-226]	100	91	89	100	96	82	87	100	100	81	83	98	83	87	50	100	100	100	100	69	residual activity [21]: 100%; residual activity [22]: 85%; residual activity [23]: 92%; residual activity [24]: 78%; residual activity [25]: 88%; residual activity [26]: 73%; residual activity [27]: 100%; residual activity [28]: 100%; residual activity [29]: 100%; residual activity [30]: 100%; residual activity [31]: 100%; residual activity [32]: 100%; residual activity [33]: 100%; residual activity [34]: 100%; residual activity [35]: 100%; residual activity [36]: 38%; inhibition [37]: -8.35%; inhibition [38]: 33.1%; inhibition [39]: 14.3%
